One data set concerns MEC-2 cell line. Put plainly: 96-hour CTG cytotoxicity assay on MEC-2. Type of data set: cell-based, human. Particulars: 96-hour CTG assay. Here is the method: (§1) FIG. 16. Results of cytotoxicity studies on (A) MEC-1-, (B) MEC-2-, (C) Raji-, (D) Nalm-6-, and (E) Ramos cell lines, respectively, using the obinutuzumab amatoxin conjugates Obi-30.1699 and Obi-30.2115 in a 96-hour CTG assay in comparison to unconjugated α-amanitin.
(§2) Results are depicted in FIG. 14.
(§3) Results are depicted in FIG. 15.
(§4) Cytotoxic activities of the obinutuzumab amatoxin conjugates Obi-30.1699 and Obi-30.2115 were assessed in vitro on MEC-1, MEC-2, Raji, Nalm-6, and Ramos cell lines, respectively, using a 96-hour CTG assay, in comparison to unconjugated α-amanitin. Results are depicted in FIG. 16.

Data set [1] relates to Nalm-6 cells (CD20-negative). Put plainly: 96-hour CTG cytotoxicity assay on Nalm-6. Particulars: 96-hour CTG assay. It is filed as cell-based. Here is the method: as §1, §3, §4
The subject of a further data set is MEC-1 cell line. Nature of the data set: 96-hour CTG cytotoxicity assay on MEC-1. It is filed as cell-based, human. Conditions: 96-hour CTG assay. The protocol: as §1, §2, §3, §4
The subject of another data set is Ramos cell line. Put plainly: 96-hour CTG cytotoxicity assay on Ramos. Type of data set: cell-based. Particulars: 96-hour CTG assay. The protocol: as §1, §3, §4
The target of the next data set is RNA-polymerase II (Homo sapiens, UniProt P24928). Conditions: read-out: KD of complex with RNA-polymerase II; cited from earlier work.
In a further data set the test system is Raji cell line. Put plainly: 96-hour CTG cytotoxicity assay on Raji. Type of data set: cell-based, human. Conditions: 96-hour CTG assay. The protocol:
as §1, §3, §4

By Kd is commonly meant the equilibrium constant for the complex coming apart. On to `CC[C@H](C)[C@@H]1NC(=O)CNC(=O)[C@@H]2Cc3c([nH]c4cc(O)ccc34)[S+]([O-])C[C@@H](NC(=O)CNC1=O)C(=O)N[C@@H](CC(N)=O)C(=O)N1C[C@H](O)C[C@H]1C(=O)N[C@@H]([C@@H](C)[C@@H](O)CO)C(=O)N2` (stereo in doubt) [α-amanitin, reference compound], for which the “Cytotoxic effect on MEC-2 (in words)” value in the data set on MEC-2 cell line was “cytotoxic effects on all cell lines only in the millimolar range”. In addition, the “Cytotoxic effect on Nalm-6 (in words)” value in data set [1] is recorded as “cytotoxic effects on all cell lines only in the millimolar range”. For the same molecule, the “Cytotoxic effect on MEC-1 (in words)” value in the data set with MEC-1 cell line is given as “cytotoxic effects on all cell lines only in the millimolar range”. For the same molecule, the “Cytotoxic effect on Ramos (in words)” value with Ramos cell line was “cytotoxic effects on all cell lines only in the millimolar range”. Further, at RNA-polymerase II, the Kd is 3 nM. For the same molecule, the “Cytotoxic effect on Raji (in words)” value with Raji cell line is “cytotoxic effects on all cell lines only in the millimolar range”.

Source of the values: patent US20250195678A1, “B-LYMPHOCYTE SPECIFIC AMATOXIN ANTIBODY CONJUGATES” (Heidelberg Pharma Research GmbH, priority 2019, published 2025).
